From patent US20200172473A1, “DUAL MODULATORS OF FARNESOID X RECEPTOR AND SOLUBLE EPOXIDE HYDROLASE” (JOHANN WOLFGANG GOETHE-UNIVERSITÄT FRANKFURT AM MAIN, priority 2017, published 2020)

Columns and labels:
LXRβ = target: T1, LXRβ (Homo sapiens, UniProt P55055); experiment: Gal4-hybrid reporter gene assay LXRβ in HEK293T cells; type: cell-based; conditions: 10 μM; printed as both LXR subtypes
T1 construct: pFA-CMV-hLXRβ-LBD; expressed in transfected cells; host or cells: HEK293T
T1 sequence (P55055 222-460 limits assumed): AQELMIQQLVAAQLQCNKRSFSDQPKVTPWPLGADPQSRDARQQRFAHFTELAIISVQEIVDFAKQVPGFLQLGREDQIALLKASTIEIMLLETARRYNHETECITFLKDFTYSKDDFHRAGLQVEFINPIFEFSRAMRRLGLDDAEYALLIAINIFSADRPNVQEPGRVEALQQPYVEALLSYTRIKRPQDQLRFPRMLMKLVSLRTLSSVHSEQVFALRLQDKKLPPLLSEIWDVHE
Text: (§1) Hybrid reporter gene assays for PPARα/γ/δ, LXRα/β, RXRα/β/γ, RARα/β/γ, VDR and PXR Plasmids: The Gal4-fusion receptor plasmids pFA-CMV-hPPARα-LBD^52, pFA-CMV-hPPARγ-LBD^52, pFA-CMV-hPPARδ-LBD^52, pFA-CMV-hLXRα-LBD^32 and pFA-CMV-hLXRβ-LBD^32 have been reported previously. […] Frame and sequence of all fusion receptors were verified by sequencing. pFR-Luc (Stratagene) was used as reporter plasmid and pRL-SV40 (Promega) for normalization of transfection efficiency and cell growth.
(§2) Assay procedure: HEK293T cells were grown in DMEM high glucose, supplemented with 10% FCS, sodium pyruvate (1 mM), penicillin (100 U/mL) and streptomycin (100 μg/mL) at 37° C. and 5% CO2. The day before transfection, HEK293T cells were seeded in 96-well plates (2.5·10^4 cells/well). Before transfection, medium was changed to Opti-MEM without supplements. Transient transfection was carried out using Lipofectamine LTX reagent (Invitrogen) according to the manufacturer's protocol with pFR-Luc (Stratagene), pRL-SV40 (Promega) and pFA-CMV-hRXRα-LBD. 5 h after transfection, medium was changed to Opti-MEM supplemented with penicillin (100 U/mL), streptomycin (100 μg/mL), now additionally containing 0.1% DMSO and the respective test compound or 0.1% DMSO alone as untreated control. […] Luminescence was measured with an Infinite M200 luminometer (Tecan Deutschland GmbH). […]

PPARδ = target: T2, PPARδ (Homo sapiens, UniProt Q03181); experiment: Gal4-hybrid reporter gene assay PPARδ in HEK293T cells; type: cell-based; conditions: 10 μM
T2 construct: pFA-CMV-hPPARδ-LBD; expressed in transfected cells; host or cells: HEK293T
T2 sequence (Q03181 211-439 limits assumed): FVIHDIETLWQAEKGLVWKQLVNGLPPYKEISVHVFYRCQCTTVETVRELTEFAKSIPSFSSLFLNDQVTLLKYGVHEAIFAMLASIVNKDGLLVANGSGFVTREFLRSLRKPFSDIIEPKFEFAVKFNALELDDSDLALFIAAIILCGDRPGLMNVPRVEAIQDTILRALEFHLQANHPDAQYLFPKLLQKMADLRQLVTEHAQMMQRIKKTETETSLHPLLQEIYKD
Text: as §1, §2

CC(C)(C)c1ccc(C(=O)NCc2ccc(NS(C)(=O)=O)cc2Cl)cc1 [compound 57, 4-(tert-Butyl)-N-(2-chloro-4-(methylsulfonamido)benzyl)benzamide]
activity on LXRβ (LXRβ): inactive | activity on PPARδ (PPARδ): inactive
